The values that follow come from patent US20260176270A1 (Exelixis, Inc., priority 2022, published 2026).

Each structure is given as a SMILES string. Read-outs that look alike come from different tables or passages of the source.

The target in one test is T1, PKMYT1 (Homo sapiens, UniProt Q99640).
T1 construct: PKMYT1 (93 kD, full length, N-terminal GST tag from Signal Chem); GST (N); purchased Signal Chem
T1 sequence (Q99640 1-499): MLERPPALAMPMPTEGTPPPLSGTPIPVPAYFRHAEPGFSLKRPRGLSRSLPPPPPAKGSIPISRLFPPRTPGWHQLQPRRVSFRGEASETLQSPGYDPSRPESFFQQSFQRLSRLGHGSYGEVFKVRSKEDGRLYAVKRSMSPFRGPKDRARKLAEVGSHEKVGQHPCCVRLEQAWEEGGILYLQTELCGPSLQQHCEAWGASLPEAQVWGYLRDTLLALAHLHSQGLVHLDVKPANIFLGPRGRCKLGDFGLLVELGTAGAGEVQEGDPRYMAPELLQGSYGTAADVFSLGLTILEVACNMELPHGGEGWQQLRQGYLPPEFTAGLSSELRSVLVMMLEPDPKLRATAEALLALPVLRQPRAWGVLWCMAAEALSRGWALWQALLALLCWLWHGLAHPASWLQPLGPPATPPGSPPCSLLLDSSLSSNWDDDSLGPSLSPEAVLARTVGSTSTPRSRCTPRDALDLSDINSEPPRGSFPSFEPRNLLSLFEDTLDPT
The test is described as follows: ADP-Glo PKMYT1 ATP-depletion assay. Particulars: 50 nM PKMYT1, 13.3 nM CDK1, read-out: Biochemical IC50. As for the experimental part: (§1) Biochemical IC50 values were determined via ADP-Glo™ assay. Cellular IC50 values were determined via AlphaLISA assay.
ADP-Glo™ PKMYT1 ATP-depletion assay. The activity of PKMYT1 is measured using a luciferase-luciferin based ATP detection reaction to quantify ATP depletion resulting from kinase-catalyzed phosphoryl transfer to CDK1 or autophosphorylation of PKMYT1. The ADP generated as a byproduct of the reaction is converted to ATP and used to drive a luciferase reaction. Test compounds were dissolved in DMSO and dispensed into Corning 3824 384-well plates prior to the experiment such that the final DMSO concentration was <1%. To the compounds was added 3 μL of PKMYT1 (93 kD, full length, N-terminal GST tag from Signal Chem). The reaction was started by the addition of 2 μL of CDK1 (58 kDa, full length, N-terminal GST tag from Signal Chem) and ATP in assay buffer (50 mM Hepes, 40 mM NaCl, 10 mM MgCl2, 1 mM DTT, 0.1 mg/mL BSA, 2.5 mM MnCl2). Final assay concentrations were 50 nM PKMYT1, 13.3 nM CDK1, and 88 µM ATP. Plates were centrifuged for 1 minute at 1000 RPM and incubated at RT for 120 minutes. After the incubation period, ADP-Glo™ reagent was added and the plates were incubated for another 40 minutes before finally adding the kinase detection reagent. 30 minutes after the addition, plates were placed on a PHERAstar® plate reader and read using the Luminescence Protocol, integration time at 0.5 seconds.

Test [1] has as its system phosphorylation of CDK1 at Thr14 in HCC1806 cells. The test is described as follows: Cell lysate AlphaLISA assay measuring inhibition of phosphorylation of CDK1 Thr14. The format is cell-based. The settings on record: read-out: Cellular IC50. As for the experimental part:
as §1
Cell lysate AlphaLISA® assay measuring inhibition of phosphorylation of CDK1 Thr14. Inhibition of phosphorylation of CDK1 at Thr14 was determined using AlphaLISA® SureFire® Ultra™ Kit from Perkin Elmer (ALSU-PCDK1-A10K). HCC1806 cells were seeded at 2K cells per well (50 μl/well) in 384-well plates (Corning 3570) and stored overnight at 37° C. and 5% CO2. The following day, the compounds dissolved in DMSO were introduced to the cells and incubated for 4 hours at 37° C. and 5% CO2. The cells were then washed with PBS using Blue®Washer and 10 μl of lysis buffer containing protease inhibitor was added. The plate was placed on an orbital shaker (at 4° C.) for 30 minutes and stored overnight at −80° C. for complete lysing. The next day, the plates were thawed at room temperature for at least 30 min. Reagents were prepared in a dimmed light setting (<100 lumens). The assay was run by first adding 5 μl of the acceptor mix (reaction buffer 1: reaction buffer 2: activation buffer: acceptor beads 47:47:4:2), covering the plate with foil, shaking for 2 minutes and incubating at RT for 60 minutes. The donor mix (dilution buffer: donor beads 47:3) was then added at 5 μl per well, placed on the shaker for 2 minutes and incubated at RT for 60 minutes before reading the plates on a PHERAstar® plate reader. The results were normalized to DMSO (0% Inhibition) and 3 μM of reference compound.
(In general: Alpha assays give light when donor and acceptor beads are brought close together.)

For `Cc1ccc(O)c(C)c1-c1c(N)c(C(N)=O)nc2nccnc12` (single isomer, unassigned) [Compound 127, (P)-7-Amino-8-(3-hydroxy-2,6-dimethylphenyl)pyrido[2,3-b]pyrazine-6-carboxamide], the IC50 (at PKMYT1; in test [1] (4 hours)) was less than 0.05 µM throughout.

With `Cc1c(O)cc(O)cc1-c1c(N)c(C(N)=O)cc2nccnc12` [Compound 331], the IC50 (commonly the concentration needed to halve the response being measured) at PKMYT1 was 0.05 to 0.5 µM; in test [1] (Homo sapiens, HCC1806, 4 h), no less than 5 µM.

Turning to `Cc1c(O)cccc1-c1c(N)c(C(N)=O)cc2cc(Cl)cnc12` (atropisomer, axis not shown) [Compound 179], the 50% inhibitory concentration (IC50) at PKMYT1 was less than 0.05 µM; in test [1] (4 hours), 0.05 to 0.5 µM.

In the case of `COc1ccnc2c(-c3c(C)ccc(O)c3C)c(N)c(C(N)=O)cc12` [Compound 330], the half-inhibitory concentration (IC50) is less than 0.05 µM at PKMYT1 and less than 0.05 µM in test [1] (Homo sapiens, HCC1806, 4 h).

Take `Cc1c(O)cccc1-c1c(N)c(C(N)=O)nc2cccnc12` (single isomer, unassigned) [Compound 4, (P)-3-Amino-4-(3-hydroxy-2-methylphenyl)-1,5-naphthyridine-2-carboxamide]: the IC50 (at PKMYT1; in test [1] (4 hours)) was less than 0.05 µM in each case.

For the compound `Cc1c(O)cccc1-c1c(N)c(C(N)=O)cc2cccnc12` [Compound 61, 7-Amino-8-(3-hydroxy-2-methylphenyl)quinoline-6-carboxamide], the concentration for half-maximal inhibition (IC50) was less than 0.05 µM at PKMYT1 and 0.05 to 0.5 µM in test [1] (Homo sapiens, HCC1806, 4 h).

With `Cc1c(O)cccc1-c1c(N)c(C(N)=O)nc2cccnc12` (single isomer, unassigned) [Compound 5, (M)-3-amino-4-(3-hydroxy-2-methylphenyl)-1,5-naphthyridine-2-carboxamide], the IC50 was 0.5 to 1 µM on PKMYT1 and 1 to 5 µM in test [1] (4 hours).

On to `Cc1ccc(O)c(C)c1-c1c(N)c(C(N)=O)cc2cc(Cl)cnc12` [Compound 177], for which the half-inhibitory concentration (IC50) at PKMYT1 is less than 0.05 µM; in test [1] (4 hours), 0.05 to 0.5 µM.

With `Cc1ccc(O)c(C)c1-c1c(N)c(C(N)=O)nc2c(C)cccc12` (single isomer, unassigned) [Compound 33], the half-maximal inhibitory concentration (IC50) at PKMYT1 was 1 to 5 µM; in test [1] (4 hours), no less than 5 µM.

Consider `Cc1c(O)cccc1-c1c(N)c(C(N)=O)nc2cccnc12` [Compound 2, 3-Amino-4-(3-hydroxy-2-methylphenyl)-1,5-naphthyridine-2-carboxamide], for which the IC50 at PKMYT1 was less than 0.05 µM; in test [1] (Homo sapiens, HCC1806, 4 h), 0.05 to 0.5 µM.

On to `Cc1ccc2[nH]ncc2c1-c1c(N)c(C(N)=O)nc2cccnc12` (single isomer, unassigned) [Compound 8, (M)-3-amino-4-(5-methyl-1H-indazol-4-yl)-1,5-naphthyridine-2-carboxamide], for which the IC50 (on PKMYT1; in test [1] (4 hours)) was no less than 5 µM each time.

Take `COc1cccc(-c2cc(C(N)=O)nc3c(C)ccc(C)c23)c1C` [Compound 134]: the concentration for half-maximal inhibition (IC50) at PKMYT1 is no less than 5 µM; in test [1] (Homo sapiens, HCC1806, 4 h) it was no less than 5 µM.

In the case of `Cc1c(O)cccc1-c1c(N)c(C(N)=O)cc2cc(Cl)cnc12` [Compound 146], the IC50 at PKMYT1 was less than 0.05 µM; in test [1] (Homo sapiens, HCC1806, 4 h) it was 0.05 to 0.5 µM.

Regarding `Cc1ccc(O)c(C)c1-c1c(N)c(C(N)=O)nc2ccc(C(F)(F)F)cc12` (single isomer, unassigned) [Compound 40, (M)-3-Amino-4-(3-hydroxy-2,6-dimethylphenyl)-6-(trifluoromethyl)quinoline-2-carboxamide], the values for the concentration for half-maximal inhibition (IC50) (on PKMYT1; in test [1] (4 hours)) were 0.5 to 1 µM and 1 to 5 µM, respectively.

As to `Cc1c(-c2c(N)c(C(N)=O)cc3nccnc23)ccnc1O` [Compound 110, 7-Amino-8-(2-hydroxy-3-methylpyridin-4-yl)quinoxaline-6-carboxamide], the 50% inhibitory concentration (IC50) (at PKMYT1; in test [1] (4 hours)) was no less than 5 µM throughout.

`Cc1c(O)cccc1-c1c(N)c(C(N)=O)nc2cccc(F)c12` [Compound 56, 3-Amino-5-fluoro-4-(3-hydroxy-2-methyl-phenyl)quinoline-2-carboxamide]: the half-inhibitory concentration (IC50) lay in the range of 0.05 to 0.5 µM on PKMYT1 and 0.5 to 1 µM in test [1] (Homo sapiens, HCC1806, 4 h).

As to `Cc1c(O)cccc1-c1c(N)c(C(N)=O)nc2cccc(C#N)c12` (atropisomer, axis not shown) [Compound 243], the IC50 (at PKMYT1; in test [1] (4 hours)) was 0.05 to 0.5 µM each time.

For the compound `Cc1c(O)cccc1-c1c(N)c(C(N)=O)nc2cccc(F)c12` (single isomer, unassigned) [Compound 58, (M)-3-amino-5-fluoro-4-(3-hydroxy-2-methylphenyl)quinoline-2-carboxamide], the IC50 at PKMYT1 was 1 to 5 µM; in test [1] (4 hours), no less than 5 µM.

Consider `Cc1c(-c2c3c(cc4nccnc24)C(=O)NC(C)(C)N3)ccc(F)c1O` (atropisomer, axis not shown) [Compound 313], for which the IC50 (at PKMYT1; in test [1] (4 hours)) was no less than 5 µM throughout.

For `NC(=O)c1nc2cccnc2c(-c2cccc3c2CCN3C=O)c1N` [Compound 162], the IC50 on PKMYT1 was no less than 5 µM; in test [1] (Homo sapiens, HCC1806, 4 h) it was no less than 5 µM.

As to `COc1nc2cc(C(N)=O)c(N)c(-c3cccc(O)c3C)c2nc1C` (atropisomer, axis not shown) [Compound 193], the 50% inhibitory concentration (IC50) (on PKMYT1; in test [1] (4 hours)) was no less than 5 µM each time.

Take `Cc1cc(O)cc(C)c1-c1cc(C(N)=O)cc2nccnc12` [Compound 131]: the 50% inhibitory concentration (IC50) was no less than 5 µM on PKMYT1 and no less than 5 µM in test [1] (Homo sapiens, HCC1806, 4 h).

In the case of `Cc1ccc2nc(C(N)=O)c(N)c(-c3cccc(O)c3C)c2c1` [Compound 55, 3-Amino-4-(3-hydroxy-2-methylphenyl)-6-methylquinoline-2-carboxamide], the IC50 at PKMYT1 lay within 0.05 to 0.5 µM; in test [1] (Homo sapiens, HCC1806, 4 h) it was 1 to 5 µM.

Take `Cc1c(F)cncc1C1=c2ncccc2=NC(C(N)=O)C1N` (centres unmarked) [Compound 226]: the concentration for half-maximal inhibition (IC50) on PKMYT1 is less than 0.05 µM; in test [1] (4 hours), 0.5 to 1 µM.

Regarding `NC(=O)c1nc2cccnc2c(-c2ccc(F)c3[nH]ncc23)c1N` [Compound 190], the IC50 on PKMYT1 lay in the range of 0.05 to 0.5 µM; in test [1] (Homo sapiens, HCC1806, 4 h), 1 to 5 µM.

As for `Cc1ccc(O)c(C)c1-c1cc(C(N)=O)nc2ccccc12` [Compound 12, 4-(3-Hydroxy-2,6-dimethylphenyl)quinoline-2-carboxamide], the IC50 at PKMYT1 was 1 to 5 µM; in test [1] (Homo sapiens, HCC1806, 4 h), 0.05 to 0.5 µM.

Regarding `Cc1[nH]nc2cccc(-c3cc(C(N)=O)nc4ccccc34)c12` [Compound 19, 4-(3-Methyl-2H-indazol-4-yl)quinoline-2-carboxamide], the 50% inhibitory concentration (IC50) was no less than 5 µM at PKMYT1 and no less than 5 µM in test [1] (Homo sapiens, HCC1806, 4 h).

`Cc1ccc2[nH]nc(F)c2c1-c1c(N)c(C(N)=O)cc2nccnc12` (atropisomer, axis not shown) [Compound 300]: the IC50 on PKMYT1 lay within 0.05 to 0.5 µM; in test [1] (4 hours) it was 1 to 5 µM.

On to `Cc1ccc2[nH]ncc2c1-c1c(N)c(C(N)=O)cc2nccnc12` (single isomer, unassigned) [Compound 79, (M)-7-amino-8-(5-methyl-1H-indazol-4-yl)quinoxaline-6-carboxamide], for which the concentration for half-maximal inhibition (IC50) (at PKMYT1; in test [1] (4 hours)) was no less than 5 µM throughout.

Take `COc1cccc(-c2c(N)c(C(N)=O)nc3cccnc23)c1C` [Compound 1, 3-Amino-4-(3-methoxy-2-methylphenyl)-1,5-naphthyridine-2-carboxamide]: the IC50 was no less than 5 µM on PKMYT1 and no less than 5 µM in test [1] (Homo sapiens, HCC1806, 4 h).

In the case of `Cc1c(O)cccc1-c1c(N)c(C(N)=O)cc2ccn(C)c(=O)c12` (atropisomer, axis not shown) [Compound 337], the IC50 was 0.5 to 1 µM at PKMYT1 and 1 to 5 µM in test [1] (4 hours).
